Source: patent publication US20230331652A1, “TRANS-CYCLOOCTENES WITH HIGH REACTIVITY AND FAVORABLE PHYSIOCHEMICAL PROPERTIES” (University of Delaware, priority 2020, published 2023)

Tests used:
[1] = toward 20; no kinetic example for 4b in the patent, FIG. 4A footnotes cite earlier measurements in 100% H2O; cited from earlier work
[2] = Stability in methanol-d4 (35 mM) by quantitative 1H NMR; type: physicochemical; conditions: 35 mM in methanol-d4, after 7 days
Experimental: (§1) A solution of 14 (4.5 mg, 26 μmol) in methanol-d4 (750 μL) was monitored by quantitative ^1H NMR on a 600 MHz instrument to observe the decomposition of the trans-isomer over time. Methyl tert-butyl ether (3.1 μL, 26 μmol) was used as an internal standard. […] The results were plotted using Prism software (Version 8.00, GraphPad Software Inc). A waterfall plot of the ^1H NMR spectra is provided.
as §1, with “4a (3.3” for “14 (4.5”

[3] = Stability with mercaptoethanol (25 mM) in phosphate buffered D2O, pD=7.4; type: physicochemical; conditions: 25 mM mercaptoethanol
Experimental: (§2) Phosphate buffered D2O (pD=7.4) was prepared by combining anhydrous sodium dihydrogen phosphate (NaH2PO4, 77.1 mg) and anhydrous disodium hydrogen phosphate (Na2HPO4, 204.4 mg) with 20 mL of D2O to make a 0.1 M solution. The pD was measured on a Fisher Scientific AB15 Plus pH meter and pH values were converted to pD by adding 0.4 units. The pD was adjusted to 7.4 with DCI (35 wt. % in D2O) and NaOD (40 wt. % in D2O) as necessary.
TCO 14 (3.1 mg, 18 μmol) in a solution of mercaptoethanol in phosphate buffered D2O (720 μL, 18 μmol, 25 mM, pD=7.4) was monitored by quantitative 1H NMR on a 600 MHz instrument to observe the decomposition of the trans-isomer over time. Methyl tert-butyl ether (2.1 μL, 18 μmol) was used as an internal standard. After 4 hours, 93% of 14 remained and 49% of 14 remained after 20 hours. (FIG. 6C). The results were plotted using Prism software (Version 8.00, GraphPad Software Inc). A waterfall plot of the ^1H NMR spectra is provided.
TCO 4a (2.3 mg, 18 μmol) in a solution of mercaptoethanol in phosphate buffered D2O (720 μL, 18 μmol, 25 mM, pD=7.4) was monitored by quantitative 1H NMR on a 600 MHz instrument to observe the decomposition of the trans-isomer over time. Methyl tert-butyl ether (2.1 μL, 18 μmol) was used as an internal standard. After 4 hours, 89% of 4a and 49% of 4a remained after 20 hours. (FIG. 6C). The results were plotted using Prism software (Version 8.00, GraphPad Software Inc). A waterfall plot of the ^1H NMR spectra is provided.

[4] = 4a with a PEGylated amide of 20 in 100% H2O, previously measured (Darko et al.); cited from earlier work
[5] = Stopped-flow kinetics of the Diels-Alder reaction with tetrazine 20; type: physicochemical; conditions: 4a, 10 μM tetrazine, 95:5 PBS/MeOH, 25° C., in s-1 (unit assumed)
[6] = Stability in phosphate buffered D2O, pD=7.4 (33 mM) by quantitative 1H NMR; type: physicochemical
Experimental: as §2
(§3) A solution of 14 (4.3 mg, 25 μmol) in phosphate buffered D2O (750 μL, pD=7.4) was monitored by quantitative ^1H NMR on a 600 MHz instrument to observe the decomposition of the trans-isomer over time. Methyl tert-butyl ether (3.0 μL, 26 μmol) was used as an internal standard. After 1 day, 90% of 14 remained and after 5 days, 39% remained (FIG. 6B). The results were plotted using Prism software (Version 8.00, GraphPad Software Inc). A waterfall plot of the ^1H NMR spectra is provided.
as §3, with “4a (3.2” for “14 (4.3”, “85%” for “90%”, “4a” for “14”, “35%” for “39%”

[7] = Stopped-flow kinetics of the Diels-Alder reaction with tetrazine 20; type: physicochemical; conditions: toward tetrazine 20, stopped flow, 25° C., 95:5 PBS:MeOH
Experimental: The kinetics for the reaction of a-TCO derivative 14 toward a 3,6-dipyridyl-s-tetrazinyl succinamic acid derivative 20 were measured by stopped flow kinetics at 25° C. in 95:5 PBS:MeOH (FIG. 4A).
Stopped-flow kinetics measurements were performed on a SX18MV-R stopped-flow spectrophotometer (Applied Photophysics Ltd.) with temperature control (25° C.).
The reaction between 5-ax-hydroxy-5-eq-(2-hydroxyethyl)-trans-cyclooctene 14 and 3,6-dipyridyl-s-tetrazine-mono-succinamic acid 20 was monitored by a SX18MV-R stopped-flow spectrophotometer (Applied Photophysics Ltd.) at 325 nm by measuring the exponential decay of tetrazine under pseudo-first order conditions. Solutions of 14 (0.98, 1.46, 1.95, and 2.63 mM in 9:1 PBS/MeOH) and tetrazine (0.1 mM in PBS) were mixed in the stopped-flow spectrophotometer in equal volumes resulting in final concentrations of 0.49 mM, 0.73 mM, 0.97 mM, and 1.31 mM of 14 and 0.05 mM of tetrazine in 95:5 PBS/MeOH. Three independent samples were prepared for each TCO concentration and measurements were taken in duplicate every 0.1 ms for 0.1 sat 25° C. The observed rates kobs for each run were determined by nonlinear regression analysis of the data points using Prism software (Version 8.00, GraphPad Software Inc). The average kobs values were plotted against the concentrations of 14 to obtain the bimolecular rate constant k2 from the slope of the plot.
The observed rates (kobs) of 5-ax-hydroxy-5-eq-(2-hydroxyethyl)-trans-cyclooctene 14 (10-30 equivalents) and 3,6-dipyridyl-s-tetrazine-mono-succinamic acid 20 were measured using stopped-flow kinetics. The final concentrations of 14 after injection were (A) 0.49 mM, (B) 0.73 mM, (C) 0.97 mM, and (D) 1.31 mM and the concentration of tetrazine was 0.05 mM in 95:5 PBS/MeOH at 25° C. Duplicate measurements were obtained for three independent samples for each concentration of 14.
The reaction between 5-ax-hydroxy-trans-cyclooctene 4a and 3,6-dipyridyl-s-tetrazine-mono-succinamic acid 20 was monitored by a SX18MV-R stopped-flow spectrophotometer (Applied Photophysics Ltd.) at 325 nm by measuring the exponential decay of tetrazine under pseudo-first order conditions. Solutions of 4a (100, 200, 300, and 400 μM in 9:1 PBS/MeOH) and tetrazine (20 μM in PBS) were mixed in the stopped-flow […] 95:5 PBS/MeOH. Three independent samples were prepared for each TCO concentration and measurements were taken in duplicate every 0.1 ms for 0.2 s at 25° C. The observed rates kobs for each run were determined by nonlinear regression analysis of the data points using Prism software (Version 8.00, GraphPad Software Inc). The average kobs values were plotted against the concentrations of 4a to obtain the bimolecular rate constant k2 from the slope of the plot.
The observed rates (kobs) of 5-ax-hydroxy-trans-cyclooctene 4a (5-20 equivalents) and 3,6-dipyridyl-s-tetrazine-mono-succinamic acid 20 were measured using stopped-flow kinetics. […]

[8] = test system: cellular protein sulfenic acids; conditions: generally; not under the conditions of intracellular bioorthogonal chemistry (generally ≤10 μM); cited from earlier work

OC1CC/C=C/CCC1 (stereo not drawn) [Compound 4b, equatorial-5-hydroxy-trans-cyclooctene]
second-order rate constant k2 (equatorial isomer, comparison value) [1]: 22,400±40 M^−1s^−1

OC1CC/C=C/CCC1 (stereo not drawn) [Compound 4a, 5-ax-Hydroxy-trans-cyclooctene]
decomposition of the trans-isomer [2]: no observable decomposition
TCO remaining ([3]; phosphate buffered D2O pD 7.4, 4 hours): 89%
TCO remaining ([3]; phosphate buffered D2O pD 7.4, 20 hours): 49%
k2 [4]: 80,200
Kobs ([5]; Table 2 head A (0.49 mM)): 3.407
Kobs ([5]; Table 2 head B (0.73 mM)): 6.966
Kobs ([5]; Table 2 head C (0.97 mM)): 10.09
Kobs ([5]; Table 2 head D (1.31 mM)): 13.86
TCO remaining ([6]; phosphate buffered D2O pD 7.4, 1 day (24 h), room temperature): 85%
TCO remaining ([6]; phosphate buffered D2O pD 7.4, 5 days): 35%
second-order rate constant k2 [7]: 70,000±1800 M^−1s^−1

C#CCC1(O)CC/C=C/CCC1 (stereo not drawn) [Compound 5, 5-ax-Hydroxy-5-eq-propargyl-trans-cyclooctene]
TCO concentration at which sulfenic acids are modified [8]: ≥ 500 µM
